The EC50 is the concentration needed to bring the measured effect to its halfway point.

One assay concerns HCV genotype 1b. In words: HCV 1b replicon luciferase assay. The following applies: Hepatitis C virus, 48 h, read-out: EC50 in the 48 hour 1b replicon assay, 48 hour. The assay is classed as cell-based. From the text: A suitable 1b HCV RNA replicon assay uses the Huh7 cell line which contains an HCV 1b RNA replicon with a stable luciferase (LUC) reporter. This construct contains modifications that make the cell line more robust and provides stable LUC expression for antiviral screening. The LUC reporter is used as an indirect measure of HCV replication. The activity of the LUC reporter is directly proportional to HCV RNA levels and positive control antiviral compounds behave comparably using LUC endpoints. […]
Fresh growth medium is prepared just before use. The container used in the procedure is a 10 cm diameter culture dish. HCV replicon reporter cell lines are used. Prepare complete medium: add FBS and appropriate additives as described in “Culture Media”, below. Pre-warm the medium in a 37° C. thermostat water bath. Remove the dish from a 37° C. CO2 incubator. Check the cell name and complete medium and passage number marked on the dish. Aspirate the medium carefully and add 1 ml PBS to rinse the cells. Remove and discard the solution and add 1 ml of 0.25% Trypsin/0.02% EDTA. Rinse the cells with the added Trypsin/EDTA to ensure all the cells have been rinsed. Remove the Trypsin/EDTA with a vacuum pump and incubate at 37° C. for 3-5 minutes. Examine the cell morphology under an inverted microscope to confirm that a single cell suspension is clearly visible. Add 3 ml of complete medium to the dish and suspend the cell by gentle pipetting. Count the cell numbers with a hematometer. Adjust cell density to 100 k/ml by adding appropriate volume of the complete medium. Add 100 μl of cell suspension to each well of a 96-well white plate; the cell density is thus 10 k per well. Mark the plate with cell name, passage number, seeding density, date and the name of the operator. Place the 96-well assay plate in 37° C. 5% CO2 incubator for 24 hours.
Compounds are prepared or provided at 25 mM in 100% DMSO. This is the compound stock solution. The dilution procedure should be performed in a cell culture hood. Dispense the stock solution into the second column of a 96-well plate. Prepare 9-step (10 concentrations total), 5-fold serial dilutions by transferring 10 μA of the compound into the next well containing 40 μA of DMSO. Repeat for all compounds. Aspirate 2 μl of the above compound solution from each well and add into 198 μl complete media using a 12-channel pipetter to obtain the 10-fold concentration compound solution with 1% DMSO, mix well.
Remove the 96-well assay plate from the 37° C./5% CO2 incubator, examine the cell morphology under an inverted microscope. In a cell culture hood, add 10 μl of the 10× concentration compounds solution into each well on the 96-well assay plate. All compound's dose responses are done in duplicate. The starting final concentration of the compounds is 25 μM, and DMSO final concentration 0.1%. Mark the plate with compound code(s) and concentrations. Place the 96-well assay plate into CO2 incubator for 48 hours. Add 30 μl of Stead-Glo Luciferase System (Promega) reagent to each well and mix by gentle shaking on a plate shaker for 5 minutes to allow throughout cell lysis. Measure the luminescence with Envision (Perkin Elmer) with an integration time of 2 seconds. Record and analyze the data.
The cell culture media is DMEM complete: DMEM (Life Technologies #41965-039) supplemented with 10% FCS, 2 mM Glutamin (Life Technologies #25030-024), Penicillin (100 IU/ml)/Streptomycin (100 μg/ml) (Life Technologies #15140-114) and 1× nonessential amino acids (Life Technologies #11140-035). G418 (“Geneticin”, Life Technologies): concentrations are given as weight per volume of the original substance. Specific activity of a typical batch is ca. 700 μg/mg as stated by the manufacturer. […] Therefore each new batch of G418 should be tested individually e.g. in an electroporation experiment using different selection conditions (0.2-1 mg/ml).
A general note: Replicon systems follow genome replication, usually without infectious particles.
As to `Cc1ccc(C(=O)Nc2nn(C)c3nc(N4CCCCCC4)ccc23)s1` [EBP841], the EC50 is less than 3000 nM.

Still in this assay, the particulars now being: Hepatitis C virus, Huh-7, 48 h, Table 1; Huh7 HCV 1b replicon, luciferase reporter, 48 hours; read-out: 1b EC50.
As for `Cn1nc(C(=O)NC2CCNCC2)c2ccc(OCc3ccccc3-c3cccnc3)nc21` [compound 1085], the EC50 is 2200 nM.

As for `Cn1nc(C(=O)NC2CCN(CCN3CCCCC3)CC2)c2ccc(NC3CCCCCCC3)nc21` [compound 1468], the EC50 was determined as 330 nM.

As to `Cn1nc(-c2nnc(C3CCNC3)o2)c2ccc(N3CCCCCCC3)nc21` (centres unmarked) [compound 1363], the EC50 worked out at 2700 nM.

On to `Cn1nc(-c2nnc(C3CCCN(CC(F)F)C3)o2)c2ccc(N3CCCCCCC3)nc21` (centres unmarked) [compound 1273], for which the EC50 was 4800 nM.

As for `Cn1nc(-c2cnc([C@@H]3CCCN3CC3CCCCC3)s2)c2ccc(N3CCCCCCC3)nc21` [compound 1264], the EC50 came to 2400 nM.

As for `Cn1nc(C(=O)NC2CCNCC2)c2ccc(NCC3CCCCC3)nc21` [compound 863], the EC50 came out at 1300 nM.

For the compound `Cn1nc(C(=O)NC2CCN(Cc3cccc(-c4ccccc4)c3)CC2)c2ccc(OCc3cccc(-c4ccccc4)c3)nc21` [compound 970], the EC50 worked out at 8900 nM.

Consider `Cn1nc(CCCN2CCCCC2)c2ccc(N3CCCCCCC3)nc21` [compound 1172], for which the EC50 was determined as 1500 nM.

Consider `Cn1nc(-c2cnc(C(=O)NCC3CCNCC3)s2)c2ccc(N3CCCCCC3)nc21` [compound 1097], for which the EC50 was 3400 nM.

Regarding `Cn1nc(C(=O)NC2CCNCC2)c2ccc(OC3CCCCCC3)nc21` [compound 873], the concentration for a half-maximal effect (EC50) worked out at 4700 nM.

For the compound `Cn1nc(C(=O)NC2CCN(CCC(F)(F)F)CC2)c2ccc(N3CCCCCCC3)nc21` [compound 1301], the EC50 was 5100 nM.

Take `Cn1nc(C(=O)N[C@@H]2C[C@H]3CC[C@@H](C2)N3)c2ccc(N3CCCCCC3)nc21` [compound 979]: the concentration giving a half-maximal response (EC50) was 4900 nM.

For `Cn1nc(-c2cnc(C(=O)NC3CCCN(CC(F)F)C3)s2)c2ccc(N3CCCCCCC3)nc21` (centres unmarked) [compound 1322], the EC50 was 1100 nM.

As for `Cn1nc(-c2nnc(C3CCCN(CC4CCCCC4)C3)o2)c2ccc(N3CCCCCCC3)nc21` (centres unmarked) [compound 1272], the EC50 was 940 nM.

Consider `Cn1nc(C(=O)NC2CCN(CC#N)CC2)c2ccc(NC3CCCCCCC3)nc21` [compound 1479], for which the EC50 was 920 nM.

Take `CCC(CC)Oc1ccc2c(NC(=O)CC3CCCNC3)nn(C)c2n1` (centres unmarked) [compound 952]: the EC50 amounted to 10000 nM.

For the compound `Cn1nc(NC(=O)C2CCCCC2)c2ccc(N3CCCCCC3)nc21` [compound 835], the EC50 turned out to be 2400 nM.

With `O=C(CC1CCNCC1)Nc1nn(Cc2ccc(Cl)cc2)c2nc(N3CCCC3)ccc12` [compound 813], the EC50 amounted to 6800 nM.

Take `Cn1nc(C(=O)NC2CCNCC2)c2ccc(NC3CCCCC3)nc21` [compound 862]: the EC50 came to 2600 nM.

For `Cn1nc(C(=O)NC2CCNCC2)c2ccc(OCc3ccccc3-c3ccco3)nc21` [compound 1100], the EC50 was 1400 nM.

Regarding `CN(CC1CCCCC1)c1ccc2c(C(=O)NC3CCNCC3)nn(C)c2n1` [compound 867], the EC50 stood at 934 nM.

For `CC1CCC(Oc2ccc3c(C(=O)NC4CCNCC4)nn(C)c3n2)CC1` (centres unmarked) [compound 879], the EC50 was 3900 nM.

Consider `CCN(CC)c1ccc2c(C(=O)NC3CCNCC3)nn(C)c2n1` [compound 860], for which the EC50 was determined as 2900 nM.

Regarding `Cn1nc(C(=O)NC2CCN(CCN3CCC[C@H]3CO)CC2)c2ccc(N3CCCCCC3)nc21` [compound 1561], the EC50 came out at 3800 nM.

In the case of `O=C(NC1CCCNC1)c1nn(-c2ccccc2)c2nc(N3CCCCCC3)ccc12` (centres unmarked) [compound 1349], the EC50 came to 5000 nM.

Consider `Cn1nc(C(=O)NC2CCN(CC3CCCC3)CC2)c2ccc(N3CCCCCCC3)nc21` [compound 1305], for which the EC50 was determined as 490 nM.

With `O=C(NC1CCNCC1)c1nn2c3nc(ccc13)OC/C=C\CCCCC2` [compound 876], the EC50 came to 7500 nM.

Take `Cn1nc(C(=O)NC2CCN(Cc3ccncc3)CC2)c2ccc(N3CCCCCC3)nc21` [compound 1043]: the EC50 came to 1200 nM.

Turning to `Cn1nc(-c2cnc(C(=O)NC3CCCN(CCN4CCCCC4)C3)s2)c2ccc(N3CCCCCCC3)nc21` (centres unmarked) [compound 1316], the EC50 was 550 nM.

As for `C[C@@H]1CCCN1CCCc1nn(C)c2nc(N3CCCCCCC3)ccc12` [compound 1499], the EC50 is 4000 nM.

On to `Cn1nc(-c2cnc(C(=O)NCC3CCCNC3)s2)c2ccc(N3CCCCCC3)nc21` (centres unmarked) [compound 1130], for which the EC50 is 990 nM.

`CN(Cc1ccccc1)c1ccc2c(C(=O)NC3CCNCC3)n[nH]c2n1` [compound 777]: the EC50 is 2000 nM.

`Cn1nc(CNC2CCCNC2)c2ccc(N3CCCCCC3)nc21` (centres unmarked) [compound 811]: the EC50 was determined as 2900 nM.

Consider `Cn1nc(C(=O)NC2CCNCC2)c2ccc(OC3CCCC3)nc21` [compound 912], for which the EC50 was found to be 6900 nM.

Take `Cn1nc(-c2cnc(C(=O)NC3CCCCC3)s2)c2ccc(N3CCCCCCC3)nc21` [compound 1254]: the EC50 was determined as 1400 nM.

Take `Cn1nc(C(=O)NC2CCN(Cc3cccc(Cl)c3)CC2)c2ccc(N3CCCCCC3)nc21` [compound 1038]: the EC50 was determined as 3400 nM.

With `Cn1nc(C(=O)NCC2CCCNC2)c2ccc(N3CCCCCC3)nc21` (centres unmarked) [compound 872], the EC50 was 8100 nM.

With `COCC1CCCN1CCCc1nn(C)c2nc(N3CCCCCCC3)ccc12` (centres unmarked) [compound 1453], the half-maximal effective concentration (EC50) turned out to be 2800 nM.

For `Cn1nc(C(=O)NC2CCN(CCO)CC2)c2ccc(N3CCCCCC3)nc21` [compound 1598], the EC50 came out at 2700 nM.

Turning to `O=C(NC1CCNCC1)c1nn(S(=O)(=O)C2CCCCC2)c2nc(N3CCCCCC3)ccc12` [compound 988], the EC50 turned out to be 5400 nM.

In the case of `Cn1nc(-c2nnc(C3CCNCC3)o2)c2ccc(N3CCCCCC3)nc21` [compound 1125], the EC50 is 840 nM.

As to `Cn1nc(C(=O)N2CCC(N)CC2)c2ccc(N3CCCCCC3)nc21` [compound 829], the EC50 was 8700 nM.

As to `CCN1CCC(NC(=O)c2nn(C)c3nc(NC4CCCCCCC4)ccc23)CC1` [compound 1474], the 50% effective concentration (EC50) was 480 nM.

Regarding `Cn1nc(C(=O)NC2CCNCC2)c2ccc(OCc3ccccc3Br)nc21` [compound 1065], the EC50 came out at 3300 nM.

In the case of `Cn1nc(-c2coc(CC3CCNCC3)n2)c2ccc(N3CCCCCC3)nc21` [compound 1096], the EC50 stood at 2800 nM.

For the compound `CC1CCCCN1CCCc1nn(C)c2nc(N3CCCCCCC3)ccc12` (centres unmarked) [compound 1454], the EC50 turned out to be 1600 nM.

For `CCC(CC)Oc1ccc2c(NC(=O)[C@H]3CC[C@@H](N)CC3)nn(C)c2n1` [compound 951], the EC50 is 7800 nM.

Take `CC(C)Cn1nc(C(=O)NC2CCN(CCN3CCCCC3)CC2)c2ccc(N3CCCCCC3)nc21` [compound 1487]: the EC50 worked out at 830 nM.

In the case of `C[C@@H]1CCCN1CCN1CCC(NC(=O)c2nn(C)c3nc(N4CCCCCC4)ccc23)CC1` [compound 1424], the EC50 was found to be 790 nM.

For `Cn1nc(-c2cnc(C3CCN(CC4CCCCC4)C3)s2)c2ccc(N3CCCCCCC3)nc21` (centres unmarked) [compound 1268], the EC50 came out at 580 nM.

As for `Cn1nc(C(=O)NC2CCNCC2)c2ccc(N3CCC(Cc4ccccc4)CC3)nc21` [compound 868], the EC50 was determined as 2400 nM.

As to `Cn1nc(C(=O)NC2CCNCC2)c2ccc(OCc3ccccc3-c3nc4ccccc4s3)nc21` [compound 1066], the EC50 turned out to be 2500 nM.

Staying with this assay, now noted: Table 1; Huh7 HCV 1b replicon, luciferase reporter, 48 hours; read-out: 1b EC50.
As for `CCC(CC)Oc1ccc2c(NC(=O)c3ccc(C)s3)nn(C)c2n1` [compound 956], the EC50 worked out at 21000 nM.

`CCC(CC)Oc1ccc2c(NC(=O)c3ccc(C)s3)nn(C)c2n1` [compound 963]: the EC50 worked out at 2700 nM.

With `Cn1nc(C(=O)NC2CC3CCCC(C2)N3)c2ccc(N3CCCCCC3)nc21` (centres unmarked) [compound 831], the EC50 stood at 2700 nM.

The record behind these values is patent US20120232062A1, “AZAINDAZOLES TO TREAT FLAVIVIRIDAE VIRUS INFECTION” (EIGER BIOPHARMACEUTICALS, INC., priority 2009, published 2012).
